Measured values from article PMC8151400, “Evidence of the Involvement of a Plus-C Odorant-Binding Protein HparOBP14 in Host Plant Selection and Oviposition of the Scarab Beetle Holotrichia parallela” (Insects, 2021).
Structures can show the parent of a compound that is named as a salt. Where two headings read alike, the source gives them in different places.

Legend:
[1] = target: recombinant HparOBP14 (Holotrichia parallela, UniProt A0A0G2YD86); experiment: biochemical; type: binding; conditions: for binding ability with HparOBP14: 1-NPN displacement, Figure 5
Protocol: To determine the affinity of HparOBP14 to odorant volatiles, the fluorescent displacement binding assay was carried out. A total of 27 compounds was selected, including 7 compounds from host plant (elm) volatiles, 11 compounds from organic fertilizer volatiles, and 9 compounds common in both of them. The odorant compounds (purity ≥95%) were purchased from Sigma-Aldrich. The fluorescent probe N-phenyl-1-naphthylamine (1-NPN) was dissolved in methanol (chromatographic grade) to a final concentration of 1 mM and used as the stock solution. The stock solution of the purified protein was diluted with Tris-HCl (50 mmol/L, pH 7.4) to a final concentration of 2 μM and added into a colorimetric plate cuvette. The 1-NPN stock solution was then successively added to the protein solution to the final concentrations ranging from 2 μM to 20 μM. The fluorescence changes were recorded to get K1-NPN, the dissociation constant of the complex HparOBP14/1-NPN.
The binding ability of HparOBP14 to the odorant compounds was determined by titrating the mixture of the protein and the 1-NPN (final concentration 2 μM of both) with each odorant compound at final concentrations ranging from 2 μM to 40 μM. The competitive dissociation constant was calculated from the corresponding IC50 values using the following equation: Ki = [IC50]/(1+ [1-NPN]/K1-NPN), where [1-NPN] is the free concentration of 1-NPN; K1-NPN is the dissociation constant of the complex HparOBP14/1-NPN.
The fluorescence changes during the binding of either 1-NPN or odorant compounds to the HparOBP14 protein were measured and recorded with the excitation wavelength of 337 nm and within a wavelength range of 350~550 nm by a 970CRT fluorescence spectrophotometer (Yidian Analytical Instrument Company, Shanghai, China).

[2] = system: antennae of H. parallela female adults; experiment: Electroantennogram (EAG) recording after dsRNA injection; type: in vivo, Holotrichia parallela; conditions: 20 μL of 1 μg/μL in paraffin oil; for change of EAG responsive amplitude in dsHparOBP14-injected insects compared to uninjected control: 48 h after dsHparOBP14 injection; for EAG response: female adults
Protocol: (§1) The dsRNAs of HparOBP14 and GFP (GenBank number: ACY56286) (for primers, see Table S1) were synthesized using a T7 Ribo MAX™ Express RNAi System (Promega, Madison, WI, USA) according to the manufacturer’s instructions. The GFP-dsRNA was used as the negative control. Nine-to-eleven-day-old female adult beetles were injected with 2 μg dsRNA into the adult head with a 5 μL injection needle (7000 series syringes, Hamilton, USA), then kept under the same condition as 2.1 described above. The antennae were dissected at 24 h, 48 h, 72 h, and 96 h after injection, and the samples were stored at −80 °C for further RT-qPCR analyses.
The EAG recording was conducted on the adult antennae with the EAG micromanipulator MP-15 and analyzed with EAG-Pro (Syntech, Kirchzarten, Germany). Briefly, two ends of the antennae were set on electrode holders with a conductive adhesive (Spectra 360 electrode gel). An ashless filter paper (Hangzhou Special Paper Co., Ltd., Hangzhou, China) was cut into strips (3 cm × 0.5 cm). A 20 μL compound solution (concentration 1 μg/μL in paraffin oil) was applied onto the paper strip which was then placed in a Pasteur tube (17 cm × […]) and applied to the antennae by purified air at a flow rate of 1 L/min. The paraffin oil (20 μL) was used as a control. The stimulus recording time was 0.5 s and the interval between two stimulations was more than 1 min.

[3] = system: female Holotrichia parallela adults; experiment: Y-tube olfactometer behavioral bioassay; type: in vivo; conditions: for change of attraction after injection of dsHparOBP14: dsHparOBP14-injected females; for behavioral response of uninjected female beetles: uninjected females, vs paraffin oil
Protocol: as §1
The Y-tube olfactometer mainly consisted of a Y-shaped glass tube (main arm, 30 cm; sidearm, 20 cm; inner diameter, 2.5 cm; side arm angle, 60 degrees), an air sampler, a drying tower, a gas scrubber, and a flow meter. Two gas-washing cylinders were successively connected with the flow meter, drying tower, air pump, and Y-shaped glass tube through rubber pipes. The testing compound (concentration 1 μg/μL in paraffin oil) and paraffin oil (as control) were taken and dropped respectively into a rubber septum (Pherobio Technology Co., Ltd., Beijing, China) and placed respectively into the side arms of the Y-tube. The flow rate of the atmospheric air sampler was adjusted to 500 mL/min.
A female adult beetle was introduced into the main arm at the downwind end of the Y-olfactometer. Each beetle was given 5 min to respond to the treatment, and the first choice that the beetle made for each of the lateral arms was recorded. The response was regarded as valid only if the beetle crawled more than 3 cm into a lateral arm and stayed for more than 1 min.
For each compound, more than 90 beetles were tested individually until 90 responsive beetles were obtained. Each individual beetle was tested only once, and the Y-olfactometer was replaced after every 10 beetles were tested to eliminate the odor effect. The number of individual beetles that selected the compound-treated arm of the Y-olfactometer was statistically compared with the number of beetles that selected the solvent-treated arm using a Chi-square goodness of fit test.

[4] = HparOBP14 and 1-NPN 2 µM each, titrated with compound 2–40 μM
[5] = HparOBP14 and 1-NPN 2 µM each, titrated with compound 2–40 μM, read-out: IC50
[6] = calculated from IC50: Ki = [IC50]/(1+[1-NPN]/K1-NPN), read-out: Ki

recombinant HparOBP14, sequence (A0A0G2YD86 entry or part of it): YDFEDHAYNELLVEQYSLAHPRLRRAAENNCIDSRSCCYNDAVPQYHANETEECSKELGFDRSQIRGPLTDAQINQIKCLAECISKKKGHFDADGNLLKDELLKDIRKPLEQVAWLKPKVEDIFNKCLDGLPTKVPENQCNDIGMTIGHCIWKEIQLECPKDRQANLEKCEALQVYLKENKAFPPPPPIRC

Row | IC50 [1, 5] | Ki [1, 6] | binding ability with HparOBP14 [1] | Compound | Int (%): relative fluorescence intensity of 1-NPN/HparOBP14 complex after the addition of testing compound [1, 4] | IC50 [1] | Ki [1] | change of EAG responsive amplitude in dsHparOBP14-injected insects compared to uninjected control [2] | EAG response [2] | change of attraction after injection of dsHparOBP14 [3] | behavioral response of uninjected female beetles [3] | Kd [1]
1 | > 40 µM | > 34.1 µM |  | CCCC(O)CC (stereo not drawn) [3-hexanol] | 84.27% |  |  |  |  |  |  | 
2 |  |  |  | CCCC(=O)O [butyric acid] | 99.07% | > 40 µM | > 34.1 µM |  |  |  |  | 
3 | 24.6 µM | 21 µM |  | Cc1c[nH]c2ccccc12 [3-methylindole] | 56.22% |  |  | do not change significantly | clear responses | no obvious change | attracted | 
4 | > 40 µM | > 34.1 µM |  | CCCCCCCCC=O [1-nonanal] | 69.22% |  |  |  |  |  |  | 
5 |  |  |  | CC/C=C\CCO [(Z)-3-hexen-1-ol] | 96.53% | > 40 µM | > 34.1 µM |  |  |  |  | 
6 |  |  |  | CC(=O)CCC=C(C)C [6-methyl-5-hepten-2-one] | 61.66% | 32 µM | 28.2 µM | do not change significantly | clear responses | significantly increased | attracted | 
7 |  |  |  | Cc1ccc(C(C)C)cc1 [p-cymene] | 62.70% | 29.9 µM | 25.5 µM | decreased significantly |  | no obvious change | attracted | 
8 | > 40 µM | > 34.1 µM |  | CCCCCCCCCC=O [decanal] | 77.88% |  |  |  |  |  |  | 
9 | > 40 µM | > 34.1 µM |  | C=C1CC/C=C(\C)CC[C@@H]2[C@@H]1CC2(C)C [β-caryophyllen] |  |  |  |  |  |  |  | 
10 | > 40 µM | > 34.1 µM |  | CC1=CCC2C(C1)C2(C)C (stereo not drawn) [3-carene] | 68.52% |  |  |  |  |  |  | 
11 | > 40 µM | > 34.1 µM | weaker, or no, binding ability | CC/C=C\CCOC(C)=O [cis-3-hexenyl acetate] | 81.43% |  |  |  |  |  |  | 
12 | > 40 µM | > 34.1 µM |  | CCCCCCCCCCCC=O [dodecyl aldehyde] | 92.42% |  |  |  |  |  |  | 
13 |  |  |  | c1ccc2[nH]ccc2c1 [indole] | 82.23% | > 40 µM | > 34.1 µM |  |  |  |  | 
14 | > 40 µM | > 34.1 µM | weaker, or no, binding ability | CCCCC(CC)CO (stereo not drawn) [2-ethylhexanol] | 85.80% |  |  |  |  |  |  | 
15 |  |  |  | C=CCc1ccc(O)c(OC)c1 [eugenol] | 86.03% | > 40 µM | > 34.1 µM |  |  |  |  | 
16 | > 40 µM | > 34.1 µM |  | CCCCCCCC=O [octanal] |  |  |  |  |  |  |  | 
17 |  |  |  | c1ccc(Nc2cccc3ccccc23)cc1 [1-NPN, N-phenyl-1-naphthylamine, reference compound] |  |  |  |  |  |  |  | 5.8 µM
18 |  |  |  | Cc1ccc(O)cc1 [p-cresol] | 91.23% | > 40 µM | > 34.1 µM |  |  |  |  | 
19 |  |  |  | CC1=CCC2CC1C2(C)C (stereo not drawn) [α-pinene] | 67.49% | 38.5 µM | 32.8 µM | decreased significantly |  | significantly increased | attracted | 
20 |  |  |  | CC(C)=CCC/C(C)=C/CO [geraniol] | 72.07% | 40 µM | 34.1 µM | decreased significantly |  | markedly reduced | attracted | 
21 | > 40 µM | > 34.1 µM | weaker, or no, binding ability | CC/C=C\CCOC=O [cis-3-hexenyl formate] | 81.25% |  |  |  |  |  |  | 

Row | Compound | IC50 [1, 5] | Ki [1, 6] | binding ability with HparOBP14 [1] | Int (%): relative fluorescence intensity of 1-NPN/HparOBP14 complex after the addition of testing compound [1, 4] | IC50 [1] | Ki [1] | change of EAG responsive amplitude in dsHparOBP14-injected insects compared to uninjected control [2] | EAG response [2] | change of attraction after injection of dsHparOBP14 [3] | behavioral response of uninjected female beetles [3] | Kd [1]
22 | CCCCCCCO [1-heptanol] |  | > 34.1 µM |  | 83.41% | > 40 µM |  |  |  |  |  | 
23 | CCCCCCO [1-hexanol] |  | > 34.1 µM |  | 72.19% | > 40 µM |  |  |  |  |  | 
24 | CC1=CC[C@H](C(C)C)C=C1 (racemic) [α-phellandrene] |  |  | weaker, or no, binding ability | 83.00% | > 40 µM | > 34.1 µM |  |  |  |  | 
25 | C=CC(C)(O)CCC=C(C)C (stereo not drawn) [linalool] |  |  | weaker, or no, binding ability | 89.20% | > 40 µM | > 34.1 µM |  |  |  |  | 
26 | C=C1C2CCC(C2)C1(C)C (stereo not drawn) [camphene] | > 40 µM | > 34.1 µM |  | 83.88% |  |  |  |  |  |  | 
27 | CO [methanol] | 32.1 µM | 27.4 µM |  | 65.66% |  |  | decreased significantly |  | markedly reduced | attracted | 
28 | C=O [formaldehyde] | 34.6 µM | 29.5 µM |  | 68.91% |  |  | decreased significantly |  | no obvious change | attracted | 
